Experimental data reported in US20180298024A1, “CORTISTATIN ANALOGS AND USES THEREOF” (President and Fellows of Harvard College, priority 2015, published 2018).
Values joined by “and” are separate entries in the source; they are usually repeats but may differ in a detail not shown here. Equal entries are not always repeated.

Experiments:
Tachykinin NK1 = molecular target: T1, Tachykinin NK1 (Homo sapiens, UniProt P25103); assay: Panlab assay, Tachykinin NK1; assay type: binding
T1 construct: Eurofins Panlabs
Procedure: (§1) Compounds A, B, C, and D were tested in Panlab assays to evaluate potential off-target activity using standard assay kits. Methods employed in these studies have been adapted from the scientific literature to maximize reliability and reproducibility. Reference standards were run as an integral part of each assay to ensure the validity of the results obtained.
(§2) IC50 values were determined by a non-linear, least squares regression analysis using MathIQ™ (ID Business Solutions Ltd., UK). Where inhibition constants (Ki) are presented, the Ki values were calculated using the equation of Cheng and Prusoff (Cheng, Y., Prusoff, W. H., Biochem. Pharmacol. 22:3099-3108, 1973) using the observed IC50 of the tested compound, the concentration of radioligand employed in the assay, and the historical values for the KD of the ligand (obtained experimentally at Eurofins Panlabs, Inc.). Where presented, the Hill coefficient (nH), defining the slope of the competitive binding curve, was calculated using MathIQ™.

hERG potassium channel = hERG potassium channel (Homo sapiens, UniProt Q12809); assay: in vitro; conditions: human
Procedure: (§3) The in vitro effects of compounds A, B, C, D, E, and F on the hERG (human ether-à-go-go-related gene) potassium channel current (a surrogate for IKr, the rapidly activating, delayed rectifier cardiac potassium current) expressed in mammalian cells were evaluated at room temperature using the QPatch HT (Sophion Bioscience A/S, Denmark), an automatic parallel patch clamp system. The test articles were evaluated at 1 μM, 3 μM, […] and 30 μM. Each test article concentration was tested in at least three cells. The duration of exposure to each test article concentration was a minimum of 3 minutes.

[1] = molecular target: hERG (human ether-à-go-go-related gene) potassium channel (Homo sapiens, UniProt Q12809); assay: in vitro
Procedure: as §3

[2] = TurboSol solubility evaluation in physiological saline; assay type: physicochemical; conditions: HB-PS+0.3% DMSO
[3] = tested on: Human AML cell line MV4;11; assay: MV4;11 disseminated leukemia model (bioluminescence); assay type: in vivo, NSG mice
Procedure: The in vivo anti-leukemic activity of Compounds A, B, C, D, and F was tested at the indicated doses and treatment schedules. The doses were chosen based on the compounds tolerability profile (i.e. CA was dosed at 0.16 mg/kg because higher doses caused weight loss or other tolerability issues outlined in Example 6). Human AML cell line MV4;11 expressing mCherry and luciferase were injected into NSG mice. Upon measurement of leukemia cell engraftment, treatment was initiated. Body weight and bioluminescence were measured. It has previously been shown (Shair, Nature 2015) that bioluminescence corresponds to leukemia burden. […] Moreover there was no appreciable advantage between IV or PO dosing observed.

hKCNQ1/hKCNE1 (IKs) = molecular target: T2, hKCNQ1/hKCNE1 (IKs) (Homo sapiens, UniProt P51787); assay: IKs current, PatchXpress 7000A planar voltage clamp; assay type: cell-based
T2 construct: expressed in transfected cells; host or cells: CHO or HEK293 cells
Procedure: (§4) The objective of this study was to evaluate the in vitro effects of Compound F on three cardiac ion channel currents: IKr, the rapidly activating, delayed rectifier potassium current through hERG channel encoded by human ether-à-go-go-related gene; IKs, the slowly activating, delayed rectifier cardiac potassium channel current encoded by hKCNQ1/hKCNE1; and INa, the human cardiac Na+ channel current encoded by hNav1.5 in CHO or HEK293 cells (Table 7). This functional assay was conducted using higher throughput planar voltage-clamp technology PatchXpress 7000A.
(§5) Signal amplitudes were quantified at steady state during control (vehicle) and in the presence of increasing concentrations of the test compound. Concentration-dependent changes of signal in response to compound were expressed as percent block relative to control (pre-drug/trigger) and are reported as the mean±SEM (standard error) of the indicated number (N) of tested cells/wells. IC50 values were determined where applicable by fitting the averaged concentration-response data (mean±SEM) with a Hill equation.

SKNO-1 = assay: Half-maximal growth inhibition (GI50), SKNO-1; assay type: cell-based; conditions: Homo sapiens, 240 h, AML, M2, RUNX1-RUNX1T1, read-out: GI50 (nM), day 10
Procedure: (§6) Compounds A, B, C, D, and F were tested against various cell lines to probe their broad utility against cancer. Cortistatin A (CA) was also tested against the cell lines in a head to head fashion.

hERG channel (IKr) = molecular target: T3, hERG channel (IKr) (Homo sapiens, UniProt Q12809); assay: hERG (IKr) current, PatchXpress 7000A planar voltage clamp; assay type: cell-based; conditions: human, CHO or HEK293 cells expressing the hERG channel; PatchXpress functional voltage clamp
T3 construct: expressed in transfected cells; host or cells: CHO or HEK293 cells
Procedure: as §4, §5

MV4; 11 = assay: Half-maximal growth inhibition (GI50), MV4; 11; assay type: cell-based; conditions: Homo sapiens, 240 h, AML, M5, MLL-AF4, read-out: GI50 (nM), day 10
Procedure: as §6

hNav1.5 (INa) = molecular target: T4, hNav1.5 (INa) (Homo sapiens, UniProt Q14524); assay: INa current, PatchXpress 7000A planar voltage clamp; assay type: cell-based
T4 construct: expressed in transfected cells; host or cells: CHO or HEK293 cells
Procedure: as §4, §5

hERG = hERG (Homo sapiens, UniProt Q12809); assay: hERG (IKr) current, PatchXpress 7000A planar voltage clamp; assay type: cell-based; parameters: expressed in transfected cells; host or cells: CHO or HEK293 cells
Procedure: as §4, §5

[4] = Tolerability study of Compound F (body weight); assay type: in vivo, mice
Procedure: Twenty seven mice were used for the tolerability study of Compound F. Mice were randomly assigned to various treatment groups with n=3 mice/group. In the low dose group of 0.3 mg/kg Compound F administered IP, mice were re-challenged after 8 days of drug holiday with a higher dose of 20 mg/kg Compound F, IP. All mice were treated for 7 days unless as indicated below.
Mice were monitored clinically for signs of morbidity and for body weights daily. Mice showing signs of morbidity were euthanized as per study guidelines.

[5] = Pharmacokinetic profile in mice (plasma, LC-MS/MS); conditions: male, CD-1, mouse, plasma, po, 1 mg/kg
Procedure: Formulation correction for salt content was not required for this study. Materials were vortexed and sonicated at room temperature following addition of vehicle. The solutions were maintained at ambient temperature stirring in the dark for at least 30 minutes prior to dose administration. The formulations were then vortexed and sonicated briefly to help ensure solubility.
Mice were selected from the Testing Facility's rodent colony. The animals were enrolled in the study based on acceptable health as determined by Testing Facility personnel on the day of test article administration. Animals were held in environmental acclimation for at least 48 hours (±6 hours) prior to dosing. Animals were maintained at temperatures between 16-26° C. (62-78° F.) with the humidity range between 30-70%. Animals in all groups were fasted overnight and food was returned 4 hours following dosing. Water was provided ad libitum throughout the study.
Whole blood samples for plasma were either collected from each animal by either direct vein puncture of the submandibular vein (survival blood collection) or by cardiac puncture following euthanasia with CO2 (terminal blood collection). […] Following collection, whole blood was placed into a tube containing K2EDTA and immediately placed on wet ice until processed for plasma. Whole blood samples were centrifuged at 2200×g for 10 minutes in a refrigerated centrifuge (5±3° C.) to isolate plasma. The samples were transferred to individual polypropylene containers and immediately placed on dry ice before storage at −70±10° C. until analysis. Plasma collected from undosed spare animals was pooled and analyzed as well.
Once collected the mouse plasma studies were quantitated using LCMS/MS spectroscopy to determine the concentration of compound. […] Eight calibration standards containing the analyte and internal standard imipramine were prepared and analyzed at the beginning and at the end of the sequence. A calibration curve was generated and sample concentrations calculated using the Quantitation software MassHunter.

off-targets (Panlabs) = assay: Panlab off-target assay panel; assay type: binding; conditions: 10 μM
Procedure: as §1, §2

MOLM-14 = assay: Half-maximal growth inhibition (GI50), MOLM-14; assay type: cell-based; conditions: Homo sapiens, 240 h, AML, M5, MLL-AF9, read-out: GI50 (nM), day 10
Procedure: as §6

Opiate μ(OP3, MOP) = molecular target: T5, Opiate μ(OP3, MOP) (Homo sapiens, UniProt P35372); assay: Panlab assay, Opiate μ(OP3, MOP); assay type: binding
T5 construct: Eurofins Panlabs
Procedure: Compounds A, B, C, and D were tested in Panlab assays to evaluate potential off-target activity using standard assay kits. Methods employed in these studies have been adapted from the scientific literature to maximize reliability and reproducibility.
IC50 values were determined by a non-linear, least squares regression analysis using MathIQ™ (ID Business Solutions Ltd., UK). […] Where presented, the Hill coefficient (nH), defining the slope of the competitive binding curve, was calculated using MathIQ™.

Adenosine Transporter = molecular target: T6, Adenosine Transporter (Cavia porcellus, UniProt H0V4R7); assay: Panlab assay, Adenosine Transporter; assay type: binding; conditions: reference standard
T6 sequence (H0V4R7 1-461): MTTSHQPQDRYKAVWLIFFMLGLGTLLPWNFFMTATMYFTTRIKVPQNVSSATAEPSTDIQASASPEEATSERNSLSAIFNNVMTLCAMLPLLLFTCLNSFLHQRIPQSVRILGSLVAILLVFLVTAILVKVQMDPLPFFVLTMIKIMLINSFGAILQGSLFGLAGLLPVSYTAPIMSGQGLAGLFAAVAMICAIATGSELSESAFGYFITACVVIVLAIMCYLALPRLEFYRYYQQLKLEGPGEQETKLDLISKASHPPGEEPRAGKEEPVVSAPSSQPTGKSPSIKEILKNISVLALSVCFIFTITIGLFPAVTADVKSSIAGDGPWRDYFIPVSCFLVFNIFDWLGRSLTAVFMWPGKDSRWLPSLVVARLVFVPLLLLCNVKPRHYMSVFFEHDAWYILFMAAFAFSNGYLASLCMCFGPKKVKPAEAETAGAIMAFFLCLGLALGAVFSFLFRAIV
Procedure: as §1, §2

[6] = Individual Data Points (% Inhibition), hERG

T1 sequence (P25103 whole entry): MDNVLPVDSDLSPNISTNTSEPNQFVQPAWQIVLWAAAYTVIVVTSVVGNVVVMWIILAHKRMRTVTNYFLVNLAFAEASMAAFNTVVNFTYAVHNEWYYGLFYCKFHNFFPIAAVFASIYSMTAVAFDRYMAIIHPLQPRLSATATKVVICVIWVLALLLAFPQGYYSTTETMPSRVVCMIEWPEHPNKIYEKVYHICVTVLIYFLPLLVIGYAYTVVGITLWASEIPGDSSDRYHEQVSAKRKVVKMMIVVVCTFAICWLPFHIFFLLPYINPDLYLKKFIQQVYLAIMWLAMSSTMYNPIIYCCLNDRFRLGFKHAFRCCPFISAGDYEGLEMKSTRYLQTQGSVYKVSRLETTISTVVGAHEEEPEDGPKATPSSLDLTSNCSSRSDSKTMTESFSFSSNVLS
Sequence of hERG (Q12809 whole entry): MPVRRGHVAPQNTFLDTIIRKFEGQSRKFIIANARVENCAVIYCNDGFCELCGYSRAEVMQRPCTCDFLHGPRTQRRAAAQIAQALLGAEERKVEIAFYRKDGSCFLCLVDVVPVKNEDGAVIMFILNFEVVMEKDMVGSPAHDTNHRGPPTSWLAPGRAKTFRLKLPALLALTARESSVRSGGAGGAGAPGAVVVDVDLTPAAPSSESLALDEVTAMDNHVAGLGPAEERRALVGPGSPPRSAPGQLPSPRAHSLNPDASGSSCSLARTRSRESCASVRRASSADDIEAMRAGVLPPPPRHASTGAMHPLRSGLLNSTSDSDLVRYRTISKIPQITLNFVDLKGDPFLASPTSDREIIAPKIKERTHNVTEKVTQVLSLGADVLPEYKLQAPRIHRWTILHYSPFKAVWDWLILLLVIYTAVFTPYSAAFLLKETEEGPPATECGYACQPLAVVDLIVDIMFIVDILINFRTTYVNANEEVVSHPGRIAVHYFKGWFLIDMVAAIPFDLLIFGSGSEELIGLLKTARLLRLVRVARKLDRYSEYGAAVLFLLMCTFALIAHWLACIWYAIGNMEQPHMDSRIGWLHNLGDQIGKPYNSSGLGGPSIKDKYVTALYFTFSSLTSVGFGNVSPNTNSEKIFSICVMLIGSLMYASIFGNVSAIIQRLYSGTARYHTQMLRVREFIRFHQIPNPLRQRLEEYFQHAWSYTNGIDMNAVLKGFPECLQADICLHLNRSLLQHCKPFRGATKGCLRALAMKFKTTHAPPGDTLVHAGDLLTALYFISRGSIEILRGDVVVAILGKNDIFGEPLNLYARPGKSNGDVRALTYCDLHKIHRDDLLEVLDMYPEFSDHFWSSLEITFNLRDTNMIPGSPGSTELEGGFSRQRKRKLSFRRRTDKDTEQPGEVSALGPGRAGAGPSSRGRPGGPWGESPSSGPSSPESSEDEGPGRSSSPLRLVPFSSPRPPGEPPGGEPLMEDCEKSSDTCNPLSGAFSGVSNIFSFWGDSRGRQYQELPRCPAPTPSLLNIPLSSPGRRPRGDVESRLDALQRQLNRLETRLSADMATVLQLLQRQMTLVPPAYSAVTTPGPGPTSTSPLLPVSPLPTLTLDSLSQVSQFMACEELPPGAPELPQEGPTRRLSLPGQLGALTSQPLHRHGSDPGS
Sequence of hERG potassium channel (Q12809 whole entry): as above
T4 sequence (Q14524 whole entry): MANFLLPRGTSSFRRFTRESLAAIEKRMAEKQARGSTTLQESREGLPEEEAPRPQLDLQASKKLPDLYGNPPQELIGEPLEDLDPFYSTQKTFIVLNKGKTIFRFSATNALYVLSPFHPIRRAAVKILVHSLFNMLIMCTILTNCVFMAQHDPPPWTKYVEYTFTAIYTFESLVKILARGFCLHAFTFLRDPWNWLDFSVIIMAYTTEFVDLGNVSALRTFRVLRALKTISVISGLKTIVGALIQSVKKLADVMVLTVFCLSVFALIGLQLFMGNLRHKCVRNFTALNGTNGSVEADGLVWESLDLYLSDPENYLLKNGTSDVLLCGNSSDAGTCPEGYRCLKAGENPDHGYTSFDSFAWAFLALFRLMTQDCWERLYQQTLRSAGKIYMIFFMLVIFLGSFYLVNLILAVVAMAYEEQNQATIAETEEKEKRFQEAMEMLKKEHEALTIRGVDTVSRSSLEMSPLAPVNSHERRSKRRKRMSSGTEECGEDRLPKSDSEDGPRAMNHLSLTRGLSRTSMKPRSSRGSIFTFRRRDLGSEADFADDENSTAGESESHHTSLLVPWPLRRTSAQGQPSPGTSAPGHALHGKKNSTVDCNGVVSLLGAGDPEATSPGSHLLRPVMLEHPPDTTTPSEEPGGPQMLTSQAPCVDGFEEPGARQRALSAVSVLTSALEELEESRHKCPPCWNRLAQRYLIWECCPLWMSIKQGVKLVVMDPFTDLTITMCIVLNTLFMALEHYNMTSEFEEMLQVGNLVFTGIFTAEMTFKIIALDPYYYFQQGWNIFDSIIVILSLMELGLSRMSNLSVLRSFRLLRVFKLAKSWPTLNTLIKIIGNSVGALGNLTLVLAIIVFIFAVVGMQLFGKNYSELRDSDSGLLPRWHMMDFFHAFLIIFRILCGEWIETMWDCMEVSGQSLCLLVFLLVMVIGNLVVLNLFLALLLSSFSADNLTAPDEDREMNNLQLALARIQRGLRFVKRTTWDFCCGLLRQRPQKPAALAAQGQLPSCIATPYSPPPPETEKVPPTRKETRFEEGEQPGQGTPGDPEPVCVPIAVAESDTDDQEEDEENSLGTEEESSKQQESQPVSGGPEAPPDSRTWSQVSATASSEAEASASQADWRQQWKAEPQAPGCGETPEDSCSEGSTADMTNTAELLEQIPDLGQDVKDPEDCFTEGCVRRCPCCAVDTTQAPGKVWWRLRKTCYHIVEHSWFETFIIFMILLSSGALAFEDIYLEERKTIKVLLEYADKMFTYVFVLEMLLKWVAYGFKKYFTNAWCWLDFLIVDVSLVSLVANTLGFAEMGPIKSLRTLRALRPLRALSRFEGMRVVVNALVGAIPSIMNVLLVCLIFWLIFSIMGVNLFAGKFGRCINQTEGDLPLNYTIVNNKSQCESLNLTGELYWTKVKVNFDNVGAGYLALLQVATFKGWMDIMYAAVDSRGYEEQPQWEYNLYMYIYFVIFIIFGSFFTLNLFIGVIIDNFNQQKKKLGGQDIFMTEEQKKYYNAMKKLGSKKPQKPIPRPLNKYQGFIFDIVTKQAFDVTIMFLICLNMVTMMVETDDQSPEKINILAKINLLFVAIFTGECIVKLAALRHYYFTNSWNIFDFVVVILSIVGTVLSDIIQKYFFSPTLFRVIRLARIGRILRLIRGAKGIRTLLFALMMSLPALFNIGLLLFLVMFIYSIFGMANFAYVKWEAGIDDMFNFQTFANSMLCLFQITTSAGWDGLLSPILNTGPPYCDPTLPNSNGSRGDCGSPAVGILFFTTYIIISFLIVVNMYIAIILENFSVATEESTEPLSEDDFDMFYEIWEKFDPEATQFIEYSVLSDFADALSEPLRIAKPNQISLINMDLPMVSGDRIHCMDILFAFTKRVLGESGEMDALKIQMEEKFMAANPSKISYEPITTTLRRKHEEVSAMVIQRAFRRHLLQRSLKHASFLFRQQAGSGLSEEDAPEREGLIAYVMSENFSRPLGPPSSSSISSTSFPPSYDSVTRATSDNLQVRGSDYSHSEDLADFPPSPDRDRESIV

## Ic1ccccc1CN[C@@H]1C2CCN(CC2)[C@@H]1C(c1ccccc1)c1ccccc1 (racemic) [L-703,606, reference compound]
Tachykinin NK1
  nH (Hill coefficient), Tachykinin NK1: 0.88
Tachykinin NK1; reference standard
  IC50: 3.6 nM
Tachykinin NK1; reference standard, Cheng and Prusoff
  Ki: 2.6 nM

## C[C@]12CC=C3C=C4CC[C@@H](N5CCCC5)C[C@]45CCC3(O5)[C@@H]1CC[C@@H]2c1ccc2ccncc2c1 [Compound E]
hERG potassium channel; [6]
  inhibition at 1 µM: 65.6%
  inhibition at 3 µM: 83.4%
  inhibition at 10 µM: 93.8%
  inhibition at 30 µM: 97.7%
hERG potassium channel; Mean % hERG Inhibition
  inhibition at 1 µM: 67.2%
  inhibition at 3 µM: 79.2%
  inhibition at 10 µM: 93%
  inhibition at 30 µM: 98.8%
[1]
  activity in the hERG assay: sub-micromolar activity
[1]; hERG IC50, QPatch HT, room temperature
  IC50: 562 nM
[2]; 1 μM
  Average LSU (×1000): 3.7 LSU (×1000)
[2]; 3 μM
  Average LSU (×1000): 4.7 LSU (×1000)
[2]; 10 μM
  Average LSU (×1000): 6.4 LSU (×1000)
[2]; 30 μM
  Average LSU (×1000): 8.7 LSU (×1000)
[2]
  solubility in the TurboSol assay: slightly insoluble at 30 μM

## C[C@]12CC=C3C=C4CC[C@@H](N5CCC5)C[C@]45CCC3(O5)[C@@H]1CC[C@@H]2c1ccc2ccncc2c1 [Compound F]
[3]; 1 mpk PO QDx15, NSG mice
  Fold increase in leukemia burden 15 days after 1st dose: 12.3 fold
[3]; each compound at its own dose/schedule, data from 3 separate studies
  Efficacy Rank Day 15: 6
hKCNQ1/hKCNE1 (IKs)
  IC50: 17000 nM
hKCNQ1/hKCNE1 (IKs); 10 μM
  IKS % Block Mean ± SEM (n): 34 ± 7 (5) %
hKCNQ1/hKCNE1 (IKs); 30 μM
  IKS % Block Mean ± SEM (n): 68±15% and 68 ± 15 (4) %
SKNO-1
  GI50: < 1 nM
hERG channel (IKr)
  IC20: 110 nM
MV4; 11
  GI50: 1 nM
hNav1.5 (INa); 3.3 μM, pulsing rate 3 Hz
  INa at 3 Hz % Block Mean ± SEM (n): 30 ± 5 (4) %
hNav1.5 (INa); 10 μM, pulsing rate 3 Hz
  INa at 3 Hz % Block Mean ± SEM (n): 60 ± 3 (4) %
hNav1.5 (INa); 30 μM, pulsing rate 0.2 Hz
  inhibition at 30 µM: 86 ± 2%
hNav1.5 (INa); 30 μM, pulsing rate 3 Hz
  INa at 3 Hz % Block Mean ± SEM (n): 98±1% and 98 ± 1 (4) %
hNav1.5 (INa); pulsing rate 0.2 Hz
  IC50: 14000 nM
hNav1.5 (INa); pulsing rate 3 Hz
  IC50: 6500 nM
hERG; 0.12 μM
  hERG % Block Mean ± SEM (n): 21 ± 2 (3) %
hERG; 0.37 μM
  hERG % Block Mean ± SEM (n): 51 ± 1 (3) %
hERG; 1.1 μM
  hERG % Block Mean ± SEM (n): 77 ± 0 (3) %
hERG; 3.3 μM
  hERG % Block Mean ± SEM (n): 94 ± 0 (4) %
hERG; 10 μM
  hERG % Block Mean ± SEM (n): 97 ± 0 (4) %
hERG; 30 μM
  hERG % Block Mean ± SEM (n): 102 ± 1 (4) %
hERG; PatchXpress functional voltage clamp
  IC50: 370 nM
[4]; IP 20 mg/kg, 2 of 3 mice
  body weight loss: > 15%
[4]; oral 1 mg/kg
  average body weight loss: ~10%
[4]; oral 3 mg/kg, 3 of 3 mice, requiring drug holiday
  body weight loss: > 15%
[4]; oral 10 mg/kg, not tolerated
  body weight loss: > 20%
[5]
  AUC(0-inf): 524 ng·h/mL
off-targets (Panlabs); Safety Panel = 28 binding assays (Eurofins Panlabs)
  number of targets with ≥75% inhibition: 12
off-targets (Panlabs); over 100 Panlab assays
  number of targets with greater than 50% inhibition: over 20
  number of targets with inhibition of greater than or equal to 75%: 12
MOLM-14
  GI50: 3 nM

## C[C@@H](NC(=O)[C@@H](N)Cc1ccc(O)cc1)C(=O)NCC(=O)N(C)[C@@H](Cc1ccccc1)C(=O)NCCO [DAMGO, reference compound]
Opiate μ(OP3, MOP)
  nH (Hill coefficient), Opiate μ(OP3, MOP): 0.75

## O=[N+]([O-])c1ccc(CSc2ncnc3c2ncn3C2OC(CO)C(O)C2O)cc1 (stereo not drawn) [nitrobenzylthioinosine, Nitrobenzylthioinosine, reference compound]
Adenosine Transporter
  IC50: 0.35 nM
Adenosine Transporter; Cheng and Prusoff
  Ki: 0.12 nM
